Results published in PubChem BioAssay (NCI).
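Values below derive from 48-hour exposures of cells grown in 96-well plates, with endpoints linearly interpolated between the two concentrations bracketing the appropriate inhibition level. Here, GI50 denotes the concentration required for 50% inhibition of growth. TGI: total growth inhibition.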

Columns and labels:
Assay in all cases: NCI anticancer screen, dose series, 48 h
KM12 colon = system: KM12 colon
UO-31 renal = system: UO-31 renal
A498 renal = system: A498 renal
PC-3 prostate = system: PC-3 prostate
HCT-116 colon = system: HCT-116 colon
SF-539 CNS = system: SF-539 CNS
U251 CNS = system: U251 CNS
SN12C renal = system: SN12C renal
UACC-257 melanoma = system: UACC-257 melanoma
NCI-H460 lung = system: NCI-H460 lung
NCI-H226 lung = system: NCI-H226 lung
HS 578T breast = system: HS 578T breast
SF-268 CNS = system: SF-268 CNS
HOP-92 NSCLC = system: HOP-92 NSCLC
SK-OV-3 ovarian = system: SK-OV-3 ovarian
UACC-62 melanoma = system: UACC-62 melanoma
OVCAR-3 ovarian = system: OVCAR-3 ovarian
NCI/ADR-RES ovarian = system: NCI/ADR-RES ovarian
K-562 leukemia = system: K-562 leukemia
OVCAR-5 ovarian = system: OVCAR-5 ovarian
HCT-15 colon = system: HCT-15 colon
SK-MEL-2 melanoma = system: SK-MEL-2 melanoma
RPMI-8226 leukemia = system: RPMI-8226 leukemia
HCC-2998 colon = system: HCC-2998 colon
EKVX NSCLC = system: EKVX NSCLC
BT-549 breast = system: BT-549 breast
SNB-19 CNS = system: SNB-19 CNS
SF-295 CNS = system: SF-295 CNS
M14 melanoma = system: M14 melanoma
786-0 renal = system: 786-0 renal
TK-10 renal = system: TK-10 renal
LOX IMVI melanoma = system: LOX IMVI melanoma
HOP-62 NSCLC = system: HOP-62 NSCLC
SW-620 colon = system: SW-620 colon
HT29 colon = system: HT29 colon
MDA-MB-231 breast = system: MDA-MB-231 breast
CCRF-CEM leukemia = system: CCRF-CEM leukemia
NCI-H23 lung = system: NCI-H23 lung
CAKI-1 renal = system: CAKI-1 renal
DU-145 prostate = system: DU-145 prostate
COLO 205 colon = system: COLO 205 colon
MALME-3M melanoma = system: MALME-3M melanoma
ACHN renal = system: ACHN renal
MCF7 breast = system: MCF7 breast
MDA-MB-435 = system: MDA-MB-435
SK-MEL-5 melanoma = system: SK-MEL-5 melanoma
HL-60(TB) leukemia = system: HL-60(TB) leukemia
SK-MEL-28 melanoma = system: SK-MEL-28 melanoma
MOLT-4 leukemia = system: MOLT-4 leukemia

## CN(C)CCCN1c2nc3ccccc3cc2Sc2cc3ccccc3nc21
KM12 colon
  GI50: 1.51 µM
  TGI: 2.88 µM
UO-31 renal
  GI50: 1.27 µM
  TGI: 2.71 µM
A498 renal
  GI50: 1.57 µM
  TGI: 2.96 µM
PC-3 prostate
  GI50: 1.36 µM
  TGI: 2.74 µM
HCT-116 colon
  GI50: 1.1 µM
  TGI: 2.31 µM
SF-539 CNS
  GI50: 1.61 µM
  TGI: 2.97 µM
U251 CNS
  GI50: 1.6 µM
  TGI: 3.08 µM
SN12C renal
  GI50: 1.28 µM
  TGI: 2.55 µM
UACC-257 melanoma
  GI50: 1.76 µM
  TGI: 3.53 µM
NCI-H460 lung
  GI50: 1.6 µM
  TGI: 3.13 µM
NCI-H226 lung
  GI50: 1.46 µM
  TGI: 4.03 µM
HS 578T breast
  GI50: 1.37 µM
  TGI: 2.91 µM
SF-268 CNS
  GI50: 1.59 µM
  TGI: 3 µM
HOP-92 NSCLC
  GI50: 0.332 µM
  TGI: 1.42 µM
SK-OV-3 ovarian
  GI50: 1.59 µM
  TGI: 3.01 µM
UACC-62 melanoma
  GI50: 1.46 µM
  TGI: 2.8 µM
OVCAR-3 ovarian
  GI50: 1.53 µM
  TGI: 2.92 µM
NCI/ADR-RES ovarian
  GI50: 1.88 µM
  TGI: 5.39 µM
K-562 leukemia
  GI50: 0.639 µM
  TGI: > 100 µM
OVCAR-5 ovarian
  GI50: 1.54 µM
  TGI: 2.97 µM
HCT-15 colon
  GI50: 1.33 µM
  TGI: 2.87 µM
SK-MEL-2 melanoma
  GI50: 1.3 µM
  TGI: 2.84 µM
RPMI-8226 leukemia
  GI50: 0.45 µM
  TGI: 2.08 µM
HCC-2998 colon
  GI50: 1.65 µM
  TGI: 3.26 µM
EKVX NSCLC
  GI50: 1.5 µM
  TGI: 3.23 µM
BT-549 breast
  GI50: 1.42 µM
  TGI: 2.84 µM
SNB-19 CNS
  GI50: 1.69 µM
  TGI: 3.13 µM
SF-295 CNS
  GI50: 1.39 µM
  TGI: 2.81 µM
M14 melanoma
  GI50: 1.69 µM
  TGI: 3.23 µM
786-0 renal
  GI50: 1.24 µM
  TGI: 2.5 µM
TK-10 renal
  GI50: 1.65 µM
  TGI: 3.1 µM
LOX IMVI melanoma
  GI50: 1.55 µM
  TGI: 3.16 µM
HOP-62 NSCLC
  GI50: 1.29 µM
  TGI: 2.58 µM
SW-620 colon
  GI50: 1.48 µM
  TGI: 2.88 µM
HT29 colon
  GI50: 1.18 µM
  TGI: 5.1 µM
MDA-MB-231 breast
  GI50: 1.41 µM
  TGI: 2.75 µM
CCRF-CEM leukemia
  GI50: 1.12 µM
  TGI: 2.55 µM
NCI-H23 lung
  GI50: 1.4 µM
  TGI: 2.86 µM
CAKI-1 renal
  GI50: 1.46 µM
  TGI: 3.01 µM
DU-145 prostate
  GI50: 1.65 µM
  TGI: 3.01 µM
COLO 205 colon
  GI50: 1.24 µM
  TGI: 2.82 µM
MALME-3M melanoma
  GI50: 1.33 µM
  TGI: 2.89 µM
ACHN renal
  GI50: 1.55 µM
  TGI: 2.94 µM
MCF7 breast
  GI50: 0.859 µM
  TGI: 2.18 µM
MDA-MB-435
  GI50: 1.51 µM
  TGI: 2.96 µM
SK-MEL-5 melanoma
  GI50: 1.59 µM
  TGI: 3.04 µM
HL-60(TB) leukemia
  GI50: 1.34 µM
  TGI: 2.79 µM
SK-MEL-28 melanoma
  GI50: 1.04 µM
  TGI: 2.21 µM
MOLT-4 leukemia
  GI50: 0.892 µM
  TGI: 2.31 µM
